Patent US20160089464A1, “MALODOR REDUCTION COMPOSITIONS” (The Procter & Gamble Company, priority 2014, published 2016)

Assay: Comment Code material properties: vapor pressure, ClogP, probability of ingredient color instability, odor detection threshold, melamine formaldehyde PMC headspace response ratio and leakage, liquid dish neat product liquid-air partition coefficient
Format: physicochemical
Conditions: Table 1 materials; each letter of the code is one property class (vapor pressure, ClogP, color instability, odor detection threshold, PMC headspace ratio, PMC leakage, liquid dish liquid-air partition coefficient)

SMILES | Comment Code
CC1=CC2C(C(C)C)CCC(C)(O)C2CC1 (centres unmarked) [Material 716] | DEFHJK
CC1=CC2C(CC1)C(C)=CCC2C(C)C (centres unmarked) [Material 717] | DEFHJKL
COc1ccc(CC(C)C=O)cc1 (centres unmarked) [Material 586] | BCHJK
CC(C)c1cccc(C(C)CC=O)c1 (centres unmarked) [Material 914] | BDHJK
CC(C)(C)c1ccc(CCC=O)cc1 [Material 601] | BDHJK
C=C(C)C1CC=C(C)C(OC(C)=O)C1 (centres unmarked) [Material 577] | BDHIJK
CCCCCC(C=O)=Cc1ccc(C)cc1 [Material 769] | DHJ
CCCCCCCC/C=C\CC=O [Material 884] | BCFHJK
CC12CCCC(O)(C1)C1CC(C)(C)C1CC2 (centres unmarked) [Material 574] | DEFHJK
CC(C)C(=O)OC1CC2CCC1(C)C2(C)C (centres unmarked) [Material 603] | BDEFHIJK
CCC(=O)OC1CC2CC1C1CC=CC21 (centres unmarked) [Material 919] | CEFHJK
CCCCCCCCCCC=CC=O [Material 930] | BDFHJK
CC1=CCCC2(C)CCC3CC12OC3(C)C (centres unmarked) [Material 726] | BDEFHJK
O=C(OCc1ccccc1)c1ccccc1 [Material 653] | DHJ
CCCCC/C=C/C=C\C(=O)OCC [Material 942] | BDEFHJK
C[C@@H]1CC[C@H]2C(C)(C)[C@H]3C[C@@]12CC1OC(C)(C)OC13C (some centres unmarked) [Material 674] | DEFHJK
O=C(OCCc1ccccc1)c1ccccc1 [Material 967] | DHJ
CCCCCOC(=O)C=Cc1ccccc1 [Material 671] | DEFHJK
C=C1CCC=C(C)CCC2C1CC2(C)C (centres unmarked) [Material 633] | DEFHJKL
C=C(C)C1CC=C(C)CC1 (centres unmarked) [Material 702] | ADEFGIJKL
CCCCC=CC=CC=O [Material 738] | ACHKL
CC1C(C)(C)C2CCC3CC(C)(C)OC3C2C1(C)C (centres unmarked) [Material 680] | ADEFHJK
CCC=CCCC=CCO [Material 865] | ACEFHK

SMILES | Comment Code
C=C1CC[C@@H]2[C@H]([C@H]3[C@H]1CC[C@]3(C)O)C2(C)C [Material 1035] | DEFHJK
C=CC1(C)CCC(C(=C)C)O1 (centres unmarked) [Material 786] | ACGIJKL
CC(=O)CCc1ccc2c(c1)OCO2 [Material 976] | CEFGJ
CCCC(O)CCC1C(C)CCCC1(C)C (centres unmarked) [Material 1063] | DEFHJK
C=CCCCCCCCCCO [Material 870] | DEFHJK
C=CCCCCCCCC=O [Material 770] | ADHKL
O=C(Cc1ccccc1)OCc1ccccc1 [Material 922] | DHJ
CCC(C)C(=O)OCCc1ccccc1 (centres unmarked) [Material 954] | DEFHJK
C=CCCC(=O)C1=CCCC(C)(C)C1 [Material 697] | BDHJK
CCCCCCC1OC(=O)CC1C (centres unmarked) [Material 941] | BDEFHIJKL
CCCCCC(=Cc1ccccc1)COC(C)=O [Material 722] | DEFHJ
COc1ccc(CCC(C)=O)cc1 [Material 803] | BCEFHJK
CC(=O)CCCC(C)CCCC(C)CCCC(C)C (centres unmarked) [Material 782] | DEFHJK
CC(C)[C@@]12CC(=O)[C@H](C)[C@@H]1C2 [Material 683] | ADEFGIJKL
CC1=C2CC(C(C)(C)O)CCC2(C)CCC1 (centres unmarked) [Material 872] | DFHJK
CCCCCCCCCCCC(=O)OCc1ccccc1 [Material 644] | DEFHJ
CCC(C)CCCC(C)C=O (centres unmarked) [Material 866] | ADFGIJKL
CCCCCCCCCC(=O)O [Material 582] | DEFHJK
C=CC(=C)CCC=C(C)CCC=C(C)C=O [Material 613] | DHJK
CCCCC(CC)C1OCCO1 (centres unmarked) [Material 1043] | ACEFHIJKL
CC1=CCC(C23CCCC(C)(C2)OC3)C1(C)C (centres unmarked) [Material 571] | DFHJ
CC1C(=O)CC2(C)CCCC(C)(C)C23CC13 (centres unmarked) [Material 804] | BDEFHJK
CCCCCC1CC(=O)C=C(C)C1C(=O)OCC (centres unmarked) [Material 591] | DHJ

Same assay, conditions: cell strings several class symbols together; each letter is one property class of L1

SMILES | Comment Code
C=C1CCC2(C(C)C)CC12 (centres unmarked) [Material 1018] | ADEFGIJKL
CC1CCOC(c2ccccc2)C1 (centres unmarked) [Material 420] | BDEFHJK
CC(C)=CCC/C(C)=C/COC=O [Material 306] | BCEFHJK
CC(=O)CCc1ccccc1 [Material 640] | ACEFGIK
O=C1CCc2ccccc2O1 [Material 442] | BCGIKL
CC12CCCC(O)(C1)C1CC(C)(C)C1CC2 (centres unmarked) [Material 574] | DEFHJK
CCC(=O)OC(C)c1ccccc1 (centres unmarked) [Material 96] | BCHJK
CCC(=O)OC1CC2CC1C1CC=CC21 (centres unmarked) [Material 919] | CEFHJK
CC1=CCCC2(C)CCC3CC12OC3(C)C (centres unmarked) [Material 726] | BDEFHJK
CC/C=C\CC1=C(C)CCC1=O [Material 526] | BCHIJKL
CC(=O)OC(C)c1ccccc1 (centres unmarked) [Material 1041] | ACEFHIK
C/C=C(\C)C(=O)OCCCCCC [Material 909] | BDEFHJKL
CC(O)CCC1C(C)CCCC1(C)C (centres unmarked) [Material 1052] | BDEFHIJK
CCc1ccc(OC)c(O)c1 [Material 797] | CEFHIK
CCCCCC(=O)O [Material 583] | ACEFGIKL
C[C@@H]1CC[C@H]2C(C)(C)[C@H]3C[C@@]12CC1OC(C)(C)OC13C (some centres unmarked) [Material 674] | DEFHJK
COC(C)(C)CCCC(C)C=O (centres unmarked) [Material 125] | ACGIJK
C=C[C@@](C)(O)CCC=C(C)C [Material 1017] | BCEFGIJK
CC(=O)OC(c1ccccc1)C(Cl)(Cl)Cl (centres unmarked) [Material 1088] | BDEFGJ
C=C(C)C1CC=C(C)C(=O)C1 (centres unmarked) [Material 902] | ACGIJKL
CCCC(C)(S)CO (centres unmarked) [Material 1098] | ACEFHIJKL
CCCCCCCOC(C)=O [Material 283] | ADEFHKL
CNC(=O)C(C)(C(C)C)C(C)C [Material 846] | ACEFGIJK
C[C@H]1[C@@H]2C[C@H](C[C@@]13C=CC(=O)CC3)C2(C)C [Material 1143] | DEFHJK

SMILES | Comment Code
CC1C(C)(C)C2CCC3CC(C)(C)OC3C2C1(C)C (centres unmarked) [Material 680] | ADEFHJK
CC(C)C(=O)OC1CC2CCC1(C)C2(C)C (centres unmarked) [Material 229] | BDEFHIJK
CC(C)CC(=O)OCc1ccccc1 [Material 645] | BDEFHJK
CC1=CC(=O)C2CC1C2(C)C (centres unmarked) [Material 883] | ACEFGIJKL
CCOC(=O)OC1CCCCC1C(C)(C)C (centres unmarked) [Material 355] | BDFHJK
C=C1CC[C@@H]2[C@H]([C@H]3[C@H]1CC[C@]3(C)O)C2(C)C [Material 1035] | DEFHJK
COc1ccc(CC(C)=O)cc1 [Material 983] | BCEFHK
CCOCCOCCO [Material 579] | BCEFGIK
CCCCCCCO [Material 282] | ACEFGIKL
CC(=O)CCC1C(C)=CCCC1(C)C (centres unmarked) [Material 448] | BDHIJK
C=CCOC(=O)COc1ccccc1 [Material 743] | BCGK
C=CC(C)(CCC=C(C)C)OC (centres unmarked) [Material 24] | ADHIJKL
C=CC(C)(O)CCC=C(C)C (centres unmarked) [Material 157] | BCEFGIJK
CC/C=C\CCOC(=O)OC [Material 163] | ACEFGKL
CC(=O)OC1CC2C3C=CCC3C1C2(C)C (centres unmarked) [Material 360] | DEFHJK
CC=Cc1ccc(O)c(OC)c1 [Material 214] | CEFHIK
CCCCCCCC(=O)OCC [Material 387] | BDEFHJKL
C=C(C)CCC[C@H](C)CCO [Material 1004] | BCHIJKL
C=CC(C)(CCC=C(C)C)OC=O (centres unmarked) [Material 150] | ACFHJK
CCC(=O)CC(C)CC (centres unmarked) [Material 784] | ACFGIKL
C=C(C)C1CCC(C)C(=O)C1 (centres unmarked) [Material 419] | ACGIJKL
CC1C(=O)CC2(C)CCCC(C)(C)C23CC13 (centres unmarked) [Material 804] | BDEFHJK
COc1c2ccoc2c(OC)c2oc(=O)ccc12 [Material 199] | CFGJ
CCCOC(=O)[C@H](C)OC(C)(C)CC [Material 1030] | BDEFHJK

Same assay, conditions: letter codes A-L: vapor pressure, ClogP, probability of ingredient color instability, odor detection threshold, PMC headspace response ratio, PMC leakage, liquid dish liquid-air partition coefficient; Table 1 materials with at least one MORV from 1 to 5

SMILES | Comment Code
COC(=O)OC1CC/C=C\CCC1 (centres unmarked) [Material 1139] | BCHJKL
C[C@H]1[C@@H]2C[C@H](C[C@@]13C=CC(=O)CC3)C2(C)C [Material 1143] | DEFHJK
COC(=O)c1ccccc1N=CC(C)Cc1ccc(C(C)(C)C)cc1 (centres unmarked) [Material 1121] | DFHJ
CC1CC(C)(c2ccccc2)OC(C)O1 (centres unmarked) [Material 1126] | BCFHJK
COc1cc(CCC(C)=O)ccc1O [Material 1146] | CEFGJ
COC(=O)c1c(C)cc(O)c(C)c1O [Material 1117] | CGIJ
CC1=CC2=C(C(C)C)CC[C@@H](C)[C@H]2CC1 [Material 1147] | DEFHJKL
